Measurements taken from ChEMBL document CHEMBL3588759, “Structure-based design, synthesis and evaluation in vitro of arylnaphthyridinones, arylpyridopyrimidinones and their tetrahydro derivatives as inhibitors of the tankyrases” (Bioorg Med Chem, 2015).

What was measured:
[1] = target: T1, Poly [ADP-ribose] polymerase tankyrase-1 (Homo sapiens, UniProt O95271); assay: Inhibition of human TNKS1 catalytic activity
T1 sequence (O95271 whole entry): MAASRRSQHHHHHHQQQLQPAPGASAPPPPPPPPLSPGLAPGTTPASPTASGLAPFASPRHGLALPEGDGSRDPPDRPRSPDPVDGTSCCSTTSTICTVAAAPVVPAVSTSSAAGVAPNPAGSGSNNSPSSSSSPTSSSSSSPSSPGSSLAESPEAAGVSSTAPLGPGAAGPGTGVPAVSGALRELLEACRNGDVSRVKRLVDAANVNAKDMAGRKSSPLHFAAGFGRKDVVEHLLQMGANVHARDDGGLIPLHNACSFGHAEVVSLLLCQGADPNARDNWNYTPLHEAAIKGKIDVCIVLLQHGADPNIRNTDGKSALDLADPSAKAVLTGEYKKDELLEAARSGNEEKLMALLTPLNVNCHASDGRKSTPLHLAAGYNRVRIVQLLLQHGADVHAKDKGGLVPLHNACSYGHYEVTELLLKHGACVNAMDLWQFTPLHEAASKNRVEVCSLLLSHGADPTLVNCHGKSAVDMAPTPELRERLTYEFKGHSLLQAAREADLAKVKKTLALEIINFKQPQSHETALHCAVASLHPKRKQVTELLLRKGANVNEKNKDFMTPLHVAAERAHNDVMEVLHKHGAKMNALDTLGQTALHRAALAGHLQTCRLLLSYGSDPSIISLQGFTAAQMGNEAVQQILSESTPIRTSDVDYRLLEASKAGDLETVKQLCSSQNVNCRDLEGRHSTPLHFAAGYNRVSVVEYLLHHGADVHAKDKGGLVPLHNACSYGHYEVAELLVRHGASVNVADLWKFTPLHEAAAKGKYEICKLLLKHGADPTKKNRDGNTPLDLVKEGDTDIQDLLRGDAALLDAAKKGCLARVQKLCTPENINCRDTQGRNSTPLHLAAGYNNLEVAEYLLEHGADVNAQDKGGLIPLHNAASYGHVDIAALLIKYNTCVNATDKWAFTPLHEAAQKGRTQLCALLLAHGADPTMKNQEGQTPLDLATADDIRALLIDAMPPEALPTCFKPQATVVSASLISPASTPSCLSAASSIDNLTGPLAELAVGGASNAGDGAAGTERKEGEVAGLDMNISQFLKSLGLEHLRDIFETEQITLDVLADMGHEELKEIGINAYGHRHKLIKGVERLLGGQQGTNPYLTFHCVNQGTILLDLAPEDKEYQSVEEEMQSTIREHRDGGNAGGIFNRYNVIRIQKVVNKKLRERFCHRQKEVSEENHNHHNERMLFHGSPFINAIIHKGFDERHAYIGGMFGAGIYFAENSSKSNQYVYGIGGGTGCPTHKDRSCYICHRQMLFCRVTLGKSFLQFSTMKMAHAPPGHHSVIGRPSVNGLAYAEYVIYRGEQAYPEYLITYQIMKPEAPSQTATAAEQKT

[2] = Antiproliferative activity against human FEK4 cells
HT-29 = assay: Antiproliferative activity against human HT-29 cells
[3] = target: T2, Poly [ADP-ribose] polymerase tankyrase-2 (Homo sapiens, UniProt Q9H2K2); assay: Inhibition of human TNKS2 catalytic activity
T2 sequence (Q9H2K2 whole entry): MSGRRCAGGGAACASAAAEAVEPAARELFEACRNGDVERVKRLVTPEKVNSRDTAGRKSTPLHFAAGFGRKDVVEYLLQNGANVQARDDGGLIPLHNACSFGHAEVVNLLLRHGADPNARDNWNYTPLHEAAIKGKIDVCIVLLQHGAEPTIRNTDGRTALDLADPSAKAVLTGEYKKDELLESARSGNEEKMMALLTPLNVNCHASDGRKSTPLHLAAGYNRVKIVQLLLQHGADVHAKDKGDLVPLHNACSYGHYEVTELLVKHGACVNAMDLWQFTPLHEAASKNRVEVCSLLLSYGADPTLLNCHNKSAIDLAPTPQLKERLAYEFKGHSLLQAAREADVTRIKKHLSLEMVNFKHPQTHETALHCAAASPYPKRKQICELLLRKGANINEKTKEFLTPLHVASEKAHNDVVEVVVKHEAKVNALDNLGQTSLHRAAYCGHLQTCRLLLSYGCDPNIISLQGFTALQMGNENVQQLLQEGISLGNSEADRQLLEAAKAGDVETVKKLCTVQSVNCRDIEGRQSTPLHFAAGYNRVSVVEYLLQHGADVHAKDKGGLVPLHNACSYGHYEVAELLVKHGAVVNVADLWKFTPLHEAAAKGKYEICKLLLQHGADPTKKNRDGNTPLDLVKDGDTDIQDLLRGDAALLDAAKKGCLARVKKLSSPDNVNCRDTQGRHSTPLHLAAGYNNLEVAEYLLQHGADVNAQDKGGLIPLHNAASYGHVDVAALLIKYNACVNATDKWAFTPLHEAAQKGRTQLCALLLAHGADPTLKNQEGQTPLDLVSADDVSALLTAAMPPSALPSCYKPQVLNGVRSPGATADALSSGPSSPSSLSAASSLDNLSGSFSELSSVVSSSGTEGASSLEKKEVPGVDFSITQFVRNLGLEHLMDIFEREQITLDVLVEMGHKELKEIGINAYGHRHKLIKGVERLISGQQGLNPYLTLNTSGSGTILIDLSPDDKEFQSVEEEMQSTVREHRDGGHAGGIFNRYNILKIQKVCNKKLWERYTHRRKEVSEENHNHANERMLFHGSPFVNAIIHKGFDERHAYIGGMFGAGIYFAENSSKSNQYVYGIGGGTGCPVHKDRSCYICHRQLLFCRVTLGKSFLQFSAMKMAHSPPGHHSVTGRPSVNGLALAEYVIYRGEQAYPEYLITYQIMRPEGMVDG

[4] = target: Poly [ADP-ribose] polymerase 1 (Homo sapiens, UniProt P09874); assay: Inhibition of human PARP1
Poly [ADP-ribose] polymerase 1, sequence (P09874 whole entry): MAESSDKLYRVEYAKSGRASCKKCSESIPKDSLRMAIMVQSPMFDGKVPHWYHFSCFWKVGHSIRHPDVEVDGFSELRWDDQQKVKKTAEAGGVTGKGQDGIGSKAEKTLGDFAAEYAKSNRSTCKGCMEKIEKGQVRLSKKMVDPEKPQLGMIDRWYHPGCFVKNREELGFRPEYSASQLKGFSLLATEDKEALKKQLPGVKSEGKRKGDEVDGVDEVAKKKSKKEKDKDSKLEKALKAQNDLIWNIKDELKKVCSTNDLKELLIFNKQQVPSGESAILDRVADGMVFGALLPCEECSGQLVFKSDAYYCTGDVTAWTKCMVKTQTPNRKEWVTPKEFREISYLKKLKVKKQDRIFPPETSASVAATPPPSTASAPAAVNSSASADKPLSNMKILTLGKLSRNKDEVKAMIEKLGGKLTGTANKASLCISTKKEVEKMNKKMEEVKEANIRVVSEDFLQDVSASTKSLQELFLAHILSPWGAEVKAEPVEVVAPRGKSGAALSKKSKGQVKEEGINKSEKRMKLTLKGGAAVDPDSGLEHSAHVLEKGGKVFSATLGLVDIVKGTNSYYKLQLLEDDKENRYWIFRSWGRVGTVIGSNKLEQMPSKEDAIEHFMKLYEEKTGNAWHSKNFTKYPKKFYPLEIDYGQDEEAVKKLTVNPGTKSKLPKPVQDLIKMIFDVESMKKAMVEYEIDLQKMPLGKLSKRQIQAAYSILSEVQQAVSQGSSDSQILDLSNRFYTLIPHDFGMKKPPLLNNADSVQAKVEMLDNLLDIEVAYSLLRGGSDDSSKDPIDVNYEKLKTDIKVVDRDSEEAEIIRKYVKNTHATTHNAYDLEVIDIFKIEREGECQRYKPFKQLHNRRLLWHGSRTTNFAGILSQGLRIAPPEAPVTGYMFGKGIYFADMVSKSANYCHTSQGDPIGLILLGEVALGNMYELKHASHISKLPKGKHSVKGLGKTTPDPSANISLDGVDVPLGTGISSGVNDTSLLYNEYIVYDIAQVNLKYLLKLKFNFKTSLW

Compound: O=c1[nH]c(-c2ccccc2)cc2ncccc12
- IC50 [1]: 5 µM
- IC50 [2]: > 500 µM
- IC50 (HT-29): > 500 µM

Compound: O=c1[nH]c(-c2ccccc2)cc2ccncc12
- IC50 [1]: 1.3 µM
- IC50 [2]: > 500 µM
- IC50 (HT-29): > 500 µM

Compound: Cc1ccc(-c2cc3cnccc3c(=O)[nH]2)cc1
- IC50 [1]: 6.2 µM
- IC50 [2]: > 500 µM
- IC50 (HT-29): 157 µM

Compound: CN1CCCc2c1cc(-c1ccccc1)[nH]c2=O
- IC50 [1]: 0.097 µM
- IC50 [2]: > 500 µM
- IC50 (HT-29): > 500 µM

Compound: COc1ccc(-c2cc3c(c(=O)[nH]2)CCCN3C)cc1
- IC50 [1]: 0.0011 µM
- IC50 [2]: > 200 µM
- IC50 (HT-29): > 200 µM

Compound: CN1CCCc2c1cc(-c1ccc(C(F)(F)F)cc1)[nH]c2=O
- IC50 [1]: 0.0015 µM
- IC50 [2]: > 200 µM
- IC50 (HT-29): > 200 µM

Compound: CN1CCCc2c1cc(-c1ccc(Cl)cc1)[nH]c2=O
- IC50 [1]: 0.021 µM
- IC50 [2]: > 500 µM
- IC50 (HT-29): 26 µM

Compound: CN1CCCc2c1cc(-c1ccc(Br)cc1)[nH]c2=O
- IC50 [1]: 0.0061 µM
- IC50 [2]: > 500 µM
- IC50 (HT-29): 26 µM
- IC50 [3]: 0.423 µM
- IC50 [4]: 2 µM
